Columns and labels:
Type in all cases: cell-based, human
[1] = tested on: re-calcified citrated blood clotted with thrombin; test: T2MR monitoring of fibrinolysis of thrombin-clotted blood; settings: tPA added 30 minutes after 3 U/ml thrombin
Protocol: Blood clotting was initiated by addition of 2 μL of a 0.2 M CaCl2 solution and 2 μL of thrombin (Sigma-Aldrich, St. Louis, Mo., final concentration 0.1-3.0 U/ml) to 34 μL of blood in a 200 μL PCR tube (Eppendorf, Hauppauge, N.Y.). All components were pre-warmed for 1 min at 37° C. before mixing. Samples were mixed by three aspiration and dispersion cycles using a pipette, then put into the T2MR reader for measurement. Typical run length was 30 min with a 10 s sampling rate. For some experiments, data collection time was extended to 1 hr.
To establish T2MR signatures for fibrinolysis, tissue plasminogen activator (tPA, Alteplase, Genentech, South San Francisco, Calif.) was added to samples clotted by thrombin. Blood clotting was initiated as described above, and the sample was incubated for […] to allow for complete clot contraction. Then, 0.5-1 μM tPA was added to clotted and contracted samples. Care was taken not to disturb clots, which were usually attached to the tube wall. The pipette tip was carefully placed into the visible serum layer on the tube side opposite to the contracted clot, and 3 μL of tPA solution was added with a single dispensing of the pipettor. The tPA solutions were made from a stock solution prepared according to manufacturer instructions using 0.15 M sodium chloride, pH 7.4.
We measured the dependencies of the T2MR signals during clotting of re-calcified citrated blood samples from healthy donors initiated by adding 3 U/ml thrombin. Thrombin activates platelets and cleaves fibrinogen to form a three-dimensional fibrin network stabilized by factor XIIIa. Addition of thrombin led to rapid formation of a gelatinous meshwork that filled the sample volume accompanied by a small, rapid decrease in the T2MR signal over tens of seconds due to the sample transitioning from a liquid to gel state. […]
We then assessed the sensitivity of the T2MR platform to fibrinolysis by adding tissue-type plasminogen activator (tPA) to the clotted samples 30 minutes after thrombin.

citrated blood [2] = test: T2MR clot strength (ΔT2) after calcium and kaolin activation; settings: ex vivo addition at 4 or 8 μg/ml; 13 minutes after activation; samples from 3 healthy donors
Protocol: (§1) A 0.5 mg/ml solution of abciximab was prepared by diluting the stock 10 mg/5 ml solution by […] in saline. The abciximab-treated blood samples were incubated for at least 5 min prior to clotting. Clotting was initiated by adding 2 μL 0.2 M CaCl2 and 2 μL TEG kaolin to 34 μL of abciximab-treated blood sample. To compare the T2MR signal to TEG MA, a ΔT2 parameter was calculated by taking the difference in T2 between the upper and middle peaks at a time point 13 min after adding calcium and kaolin. The TEG MA values were measured on the same samples following manufacturer instructions.
(§2) For comparison between T2MR and TEG, calcium kaolin activation of citrated blood was used and normal donor samples were treated with various amounts of abciximab, an inhibitor of the platelet glycoprotein allbβ3 receptor that binds fibrin and is essential for clot contraction.

citrated blood [3] = test: Thromboelastography maximum amplitude (TEG MA) after calcium and kaolin activation; settings: ex vivo addition at 4 or 8 μg/ml; samples from 3 healthy donors
Protocol: as §1, §2

Alteplase [tPA]
T2 value of the middle peak after tPA addition [1]: decreased from 250 to 175 | T2 value of the third peak after tPA addition (persisted) [1]: ~100 ms | T2 value of the upper peak after tPA addition [1]: decreased rapidly

B1: abciximab (antibody, chains of the INN, looked up, V domains shown)
VH: EVQLQQSGTVLARPGASVKMSCEASGYTFTNYWMHWVKQRPGQGLEWIGAIYPGNSDTSYIQKFKGKAKLTAVTSTTSVYMELSSLTNEDSAVYYCTLYDGYYVFAYWGQGTLVTVSA
VL: EIVLTQSPVTLSVTPGDSVSLSCRASRDISNNLHWFQQTSHESPRLLIKYASQSMSGIPSRFSGSGSGTDFTLSINSVETEDFGMYFCQQTNSWPYTFGGGTKLEIK
modifications: Fab
ΔT2 (difference between upper and middle T2 values in the T2MR signature) (citrated blood [2]): < 100 ms | TEG MA (citrated blood [3]): less than 40

— US20170045494A1, “SYSTEMS AND METHODS FOR IDENTIFYING COAGULOPATHIES” (T2 Biosystems, Inc., priority 2014, published 2017)
